Assay [1] has as its system SF-295. Briefly: Cytotoxic activity against SF-295 CNS cancer cell line. Type of assay: functional. Conditions: Homo sapiens.
Assay [2] is described as follows: Ratio of the inhibitory concentrations against Toxoplasma gondii […] and Toxoplasma gondii DHFR.
Assay [3] deals with SF-268. The assay is described as follows: Cytotoxic activity against SF-268 CNS canser cell line. To be noted: Homo sapiens. Type of assay: functional.
Assay [4] deals with HCT-116. The assay is described as follows: Cytotoxic activity against HCT116 colon cancer cell line. Conditions: Homo sapiens. In kind it is functional.
In assay [5] the test system is SR. Briefly: Cytotoxic activity against SR Leukemia cell line. In kind it is functional. Conditions: Homo sapiens.
Assay [6] relates to UACC-257. The assay is described as follows: Cytotoxic activity against UACC-257 Melanoma cell line. Type of assay: functional. Conditions: Homo sapiens.
Assay [7] concerns MOLT-4. Briefly: Cytotoxic activity against MOLT-4 Leukemia cell line. Conditions: Homo sapiens. Type of assay: functional.
For assay [8], the system named is 786-0. The assay is described as follows: Cytotoxic activity against 786-0 Renal cancer cell line. In kind it is functional. Conditions: Homo sapiens.
Assay [9] relates to MDA-N. The assay is described as follows: Cytotoxic activity against MDA-N Breast cancer cell line. Type of assay: functional. To be noted: Homo sapiens.
Assay [10] concerns A549. The assay is described as follows: Cytotoxic activity against A549/ATCC non-small cell-lung cancer cell line. In kind it is functional. Conditions: Homo sapiens.
The target in assay [11] is T1, Dihydrofolate reductase (Rattus norvegicus, UniProt Q920D2).
T1 sequence (Q920D2 whole entry): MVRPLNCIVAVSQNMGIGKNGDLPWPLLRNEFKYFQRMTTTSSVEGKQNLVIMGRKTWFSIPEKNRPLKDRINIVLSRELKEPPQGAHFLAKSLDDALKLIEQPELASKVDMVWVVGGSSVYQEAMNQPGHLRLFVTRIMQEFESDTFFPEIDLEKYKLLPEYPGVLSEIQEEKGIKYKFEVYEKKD
Description: Inhibitory activity against Dihydrofolate reductase from rat liver

The nature of assay [12]: (§1) Cytotoxic activity against IGROV1 Ovarian cancer cell line. In kind it is functional. Conditions: Homo sapiens, IGROV-1.
Assay [13] concerns the target T2, Bifunctional dihydrofolate reductase-thymidylate synthase (Toxoplasma gondii, UniProt Q07422).
T2 sequence (Q07422 whole entry): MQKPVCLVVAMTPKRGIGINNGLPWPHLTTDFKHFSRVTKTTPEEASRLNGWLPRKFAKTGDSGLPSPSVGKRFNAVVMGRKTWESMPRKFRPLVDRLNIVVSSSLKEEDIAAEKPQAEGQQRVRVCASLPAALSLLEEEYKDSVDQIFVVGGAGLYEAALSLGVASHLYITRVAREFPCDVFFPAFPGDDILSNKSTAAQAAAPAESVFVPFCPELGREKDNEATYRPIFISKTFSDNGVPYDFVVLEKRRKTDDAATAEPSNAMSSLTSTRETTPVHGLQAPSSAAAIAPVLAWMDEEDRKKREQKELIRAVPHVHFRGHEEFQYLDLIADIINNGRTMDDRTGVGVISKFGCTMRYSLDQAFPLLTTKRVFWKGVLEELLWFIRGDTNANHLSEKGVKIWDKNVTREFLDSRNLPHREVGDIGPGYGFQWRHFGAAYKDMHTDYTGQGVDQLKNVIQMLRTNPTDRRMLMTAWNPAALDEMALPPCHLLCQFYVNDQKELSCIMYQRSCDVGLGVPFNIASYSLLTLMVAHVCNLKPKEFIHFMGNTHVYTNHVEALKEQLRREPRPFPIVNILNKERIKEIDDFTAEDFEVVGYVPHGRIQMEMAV
Description: Inhibitory activity against Dihydrofolate reductase from Toxoplasma gondii

Assay [14] has as its system SW-620. The assay is described as follows: Cytotoxic activity against SW-620 colon cancer cell line. In kind it is functional. To be noted: Homo sapiens.
In assay [15] the test system is MDA-MB-435. The assay is described as follows: Cytotoxic activity against MDA-MB-435 Breast cancer cell line. Type of assay: functional. To be noted: Homo sapiens.
Assay [16] deals with NCI-H322M. The assay is described as follows: Cytotoxic activity against NCI-H322M non-small cell-lung cancer cell line. Type of assay: functional. To be noted: Homo sapiens.
Assay [17] deals with PC-3. Briefly: Cytotoxic activity against PC-3 Prostate cancer cell line. Type of assay: functional. Conditions: Homo sapiens.
Assay [18] has as its system Toxoplasma gondii. The assay is described as follows: Inhibitory activity against cultured Toxoplasma gondii. In kind it is functional, organism-based.
In assay [19] the test system is CCRF-CEM. The assay is described as follows: Cytotoxic activity against CCRF-CEM Leukemia cell line. Type of assay: functional. Conditions: Homo sapiens.
The test system of assay [20] is DU-145. Briefly: Cytotoxic activity against DU-145 Prostate cancer cell line. In kind it is functional. To be noted: Homo sapiens.
In assay [21] the test system is HCT-15. The assay is described as follows: Cytotoxic activity against HCT-15 colon cancer cell line. Type of assay: functional. To be noted: Homo sapiens.
The subject of assay [22] is HT-29. The assay is described as follows: Cytotoxic activity against HT-29 colon cancer cell line. Type of assay: functional. Conditions: Homo sapiens.
The subject of assay [23] is U-251. The assay is described as follows: Cytotoxic activity against U251 CNS cancer cell line. In kind it is functional. To be noted: Homo sapiens.
In assay [24] the test system is MDA-MB-231. Briefly: Cytotoxic activity against MDA-MB-231/ATCC Breast cancer cell line. In kind it is functional. Conditions: Homo sapiens.
For assay [25], the target named is T3, Dihydrofolate reductase (Pneumocystis carinii, UniProt P16184).
T3 sequence (P16184 whole entry): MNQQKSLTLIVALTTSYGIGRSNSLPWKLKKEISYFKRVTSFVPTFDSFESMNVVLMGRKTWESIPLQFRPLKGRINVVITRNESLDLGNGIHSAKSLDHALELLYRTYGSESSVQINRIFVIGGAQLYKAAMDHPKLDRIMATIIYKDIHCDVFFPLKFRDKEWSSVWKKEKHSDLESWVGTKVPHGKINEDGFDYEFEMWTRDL
Description: Inhibitory activity against Dihydrofolate reductase from Pneumocystis carinii

Assay [26] has as its system ACHN. Briefly: Cytotoxic activity against ACHN Renal cancer cell line. In kind it is functional. Conditions: Homo sapiens.
Assay [27] has as its system SK-MEL-5. Briefly: Cytotoxic activity against SK-MEL-5 Melanoma cell line. In kind it is functional. Conditions: Homo sapiens.
The subject of assay [28] is NCI-H460. Briefly: Cytotoxic activity against NCI-H460 non-small cell-lung cancer cell line. In kind it is functional. To be noted: Homo sapiens.
Assay [29] has as its system K562. The assay is described as follows: Cytotoxic activity against K-562 Leukemia cell line. In kind it is functional. To be noted: Homo sapiens.
Assay [30] has as its system LOX IMVI. Briefly: Cytotoxic activity against LOXIMVI Melanoma cell line. In kind it is functional. To be noted: Homo sapiens.
The subject of assay [31] is UACC-62. Briefly: Cytotoxic activity against UACC-62 Melanoma cell line. Type of assay: functional. To be noted: Homo sapiens.
Assay [32] concerns IGROV-1. Described as §1. In kind it is functional. Conditions: Homo sapiens.
Assay [33] concerns the target Dihydrofolate reductase (Lactobacillus casei, UniProt P00381).
Description: Inhibitory activity against Dihydrofolate reductase from Lactobacillus casei

What is called GI50 is the concentration that inhibits growth by half. Read a low GI50 as more potent growth inhibition. By IC50 is commonly meant the point on the concentration scale where inhibition reaches its midpoint. Low values mean greater potency, high ones weaker potency.

Sequence of Dihydrofolate reductase (Lactobacillus casei, UniProt P00381) (P00381 whole entry): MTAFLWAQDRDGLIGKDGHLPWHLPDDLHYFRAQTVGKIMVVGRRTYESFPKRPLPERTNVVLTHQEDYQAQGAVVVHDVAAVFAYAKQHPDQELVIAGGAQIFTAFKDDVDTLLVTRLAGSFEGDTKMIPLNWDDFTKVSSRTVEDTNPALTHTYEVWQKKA

On to `COc1ccc(NCc2cnc3nc(N)nc(N)c3c2C)c2ccccc12`, for which the GI50 in assay [1] is 83.2 nM; in assay [3] it was 60.4 nM; in assay [4], 11.7 nM; in assay [5], 76 nM; in assay [6], 86.8 nM; in [7], 91.1 nM. For the same compound, the GI50 in assay [8] is 55 nM; in assay [9], 42.5 nM; in assay [10] it was 38.4 nM; in assay [12], 86.8 nM; in assay [14], 79.6 nM; in assay [15] it was 62.1 nM. In addition, the 50% growth inhibitory concentration (GI50) in assay [16] was found to be 85 nM; in [17], 79.8 nM; in assay [19], 76.6 nM; in assay [20] it was 52.1 nM; in [21], 45.6 nM; in assay [22] it was 72.3 nM. Moreover, the concentration for 50% growth inhibition (GI50) in [23] was found to be 72.9 nM; in assay [24], 18.8 nM; in assay [26], 47.9 nM; in assay [27], 57.8 nM; in [28], 49.1 nM; in assay [29], 16.1 nM. Besides, the results for the GI50 in [30] and in assay [31] were 69.4 nM and 43.2 nM, respectively. In assay [2], the Ratio is 2. In addition, the 50% inhibitory concentration (IC50) in [11] amounted to 54 nM; in [13] it was 23 nM; in [18] it was 40 nM; in assay [25], 41 nM.

For the compound `COc1ccc(OC)c(N(C)Cc2cnc3nc(N)nc(N)c3c2C)c1`, the GI50 amounted to 3410 nM in [1]; 5910 nM in [3]; 3970 nM in assay [4]; 7450 nM in assay [5]; 20000 nM in [6]; 3160 nM in [7]. Also, the GI50 in assay [8] was 843 nM; in [9], 6620 nM; in [10], 732 nM; in assay [32] it was 5450 nM; in [14] it was 5040 nM; in [15], 4180 nM. The GI50 in assay [16] was 5560 nM; in assay [17], 783 nM; in [19], 7150 nM; in [20], 2710 nM; in [21], 2540 nM; in [22] it was 3220 nM. Also, the GI50 in [23] amounted to 4210 nM; in [24] it was 764 nM; in assay [26], 3750 nM; in assay [27], 1560 nM; in assay [29], 499 nM; in [30], 5820 nM. In assay [31], the GI50 came to 1150 nM. For the same compound, the Ratio in assay [2] came to 35. Further, the 50% inhibitory concentration (IC50) was 407 nM in assay [11], 30.1 nM in [13], 1050 nM in [18] and 216 nM in assay [25].

In turn, `COc1cc(N(C)Cc2cnc3nc(N)nc(N)c3c2C)cc(OC)c1OC` had an IC50 in assay [18] of 4700 nM.

As for `COc1cc(N(Cc2cnc3nc(N)nc(N)c3c2C)C(C)C)cc(OC)c1OC`, the 50% inhibitory concentration (IC50) in assay [33] is 210 nM; in assay [11], 17.5 nM; in assay [13], 6.7 nM; in assay [25], 13.4 nM.

As to `CCOc1ccc(OCC)c(NCc2cnc3nc(N)nc(N)c3c2C)c1`, the Ratio in assay [2] came to 19. The IC50 was 17.4 nM in assay [11], 17 nM in [13], 320 nM in assay [18] and 76.7 nM in assay [25].

In the case of `CCOc1ccc(OCC)c(N(C)Cc2cnc3nc(N)nc(N)c3c2C)c1`, the values for the IC50 in [11], in assay [13] and in [25] were 3000 nM, 100 nM and 3100 nM, respectively.

Turning to `COc1cc(NCc2ccc3nc(N)nc(N)c3c2C)cc(OC)c1OC` [TRIMETREXATE], half-maximal inhibition in assay [33] (IC50) was put at 27 nM.

As to `COc1cc(NCc2cnc3nc(N)nc(N)c3c2C)cc(OC)c1`, the Ratio in [2] was determined as 125. Also, the IC50 in assay [11] turned out to be 42.5 nM; in [13], 4.8 nM; in assay [18] it was 600 nM; in assay [25] it was 22.9 nM.

As for `COc1ccc(N(C)Cc2cnc3nc(N)nc(N)c3c2C)c(OC)c1`, the Ratio in [2] was found to be 46. Moreover, the half-maximal inhibitory concentration (IC50) in assay [11] worked out at 330 nM; in [13], 38 nM; in assay [18], 1730 nM; in assay [25], 510 nM.

The values above are taken from ChEMBL document CHEMBL1128680, “6-substituted 2,4-diamino-5-methylpyrido[2,3-d]pyrimidines as inhibitors of dihydrofolate reductases from Pneumocystis carinii and Toxoplasma gondii and as antitumor agents” (J Med Chem, 1995).
